Consider six compounds from patent US7572765B2, “Conformationally constrained parathyroid hormone (PTH) analogs” (The General Hospital Corporation, priority 2001, dated 2009).

What all share (format): cell-based
Test [1] has as its target T1, wild-type human P1R (hP1R-WT) (Homo sapiens, UniProt Q03431).
T1 construct: expressed in transfected cells; host or cells: COS-7 (transient, FuGENE 6)
T1 sequence (Q03431 27-593): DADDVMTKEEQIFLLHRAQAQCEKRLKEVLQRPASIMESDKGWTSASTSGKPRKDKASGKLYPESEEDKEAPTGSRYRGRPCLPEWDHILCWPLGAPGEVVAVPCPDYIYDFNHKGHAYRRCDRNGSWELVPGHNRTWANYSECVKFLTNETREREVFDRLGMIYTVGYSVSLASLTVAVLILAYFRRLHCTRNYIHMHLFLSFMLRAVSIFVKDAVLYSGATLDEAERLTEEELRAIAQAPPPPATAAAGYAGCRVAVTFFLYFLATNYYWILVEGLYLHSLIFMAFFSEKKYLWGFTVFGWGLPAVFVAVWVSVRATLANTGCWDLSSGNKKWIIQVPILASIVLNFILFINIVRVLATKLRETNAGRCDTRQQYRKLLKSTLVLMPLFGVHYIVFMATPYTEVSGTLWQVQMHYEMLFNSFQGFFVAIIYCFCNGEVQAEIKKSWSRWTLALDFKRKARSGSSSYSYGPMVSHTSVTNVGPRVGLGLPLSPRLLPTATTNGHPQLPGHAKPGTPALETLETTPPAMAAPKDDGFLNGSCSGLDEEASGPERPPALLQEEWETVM
Kind of test: cAMP stimulation in COS-7 cells expressing hP1R-WT. The following applies: for cAMP EMax(obs.) / EC50: hP1R-WT; for cAMP EMax(obs.): basal 10.3 ± 1.1, asterisk = plateau not attained. On the procedure: (§1) Cell Culture. The cell line HKRK-B28 (Takasu, H., et al., J. Bone Miner. Res. 14:11-20 (1999)) was derived from the porcine kidney cell line, LLC-PK1 by stable transfection with plasmid DNA encoding the human P1R and expresses ˜280,000 receptors per cell. These cells, as well as COS-7 cells and SaOS-2-B10 cells, were cultured at […] in T-75 flasks ([…]) in Dulbecco's modified Eagle's medium (DMEM) supplemented with fetal bovine serum (10%), penicillin G (20 units/ml), streptomycin sulfate (20 μg/ml) and amphotericin B (0.05 μg/ml) in a humidified atmosphere containing 5% CO2. Stock solutions of EGTA/trypsin and antibiotics were from GIBCO; fetal bovine serum was from Hyclone Laboratories (Logan, Utah). COS-7 cells sub-cultured in 24-well plates were transfected with plasmid DNA (200 ng per well) encoding the wild-type human P1R or truncated human P1R deleted for residues (24-181) (Shimizu, M., et al., J. Biol. Chem. 275:21836-21843 (2000)) that was purified by cesium chloride/ethidium bromide density gradient centrifugation, and FuGENE 6 transfection reagent (Roche Indianapolis Ind.) according to the manufacturer's recommended procedure. All cells, in 24-well plates, were treated with fresh media and shifted to 33° C. for 12 to 24 h prior to assay.
(§2) cAMP Stimulation. Stimulation of cells with peptide analogs was performed in 24-well plates. Cells were rinsed with 0.5 mL of binding buffer (50 mM Tris-HCI, […], 5 mM KCl, 2 mM CaCl2, 5% heat-inactivated horse serum, 0.5% fetal bovine serum, adjusted to pH 7.5 with HCl) and treated with 200 μL of cAMP assay buffer (Delbecco's modified Eagle's medium containing 2 mM 3-isobutyl-1-methylxanthine, 1 mg/mL bovine serum albumin, 35 mM Hepes-NaOH, pH 7.4) and 100 μL of binding buffer containing varying amounts of peptide analog (final volume=300 μL). The medium was removed after incubation for 30 to 60 minutes at room temperature, and the cells were frozen on dry ice, lysed with 0.5 mL 50 mM HCl, and refrozen ([…]). The cAMP content of the diluted lysate was determined by radioimmunoassay. The EC50 response values were calculated using nonlinear regression (see below).
(§3) Data Calculation. Calculations were performed using Microsoft® Excel. Nonlinear regression analyses of binding and cAMP dose-response data were performed using the four-parameter equation: yp=Min+[(Max−Min)/(1+(IC50/x)^slope)]. The Excel Solver function was utilized for parameter optimization, as described previously (Carter, P. H., et al., Endocrinology 140: 4972-4981 (1999); Bowen, W. P., and Jerman, J. C., Trends in Pharmacol. Sci. 16: 413-417 (1995)). Differences between paired data sets were statistically evaluated using a one-tailed Student's t-test, assuming unequal variances for the two sets.

Test [2] has as its target T2, P1R-delNt, truncated human P1R deleted for residues (24-181) (Homo sapiens, UniProt Q03431).
T2 construct: expressed in transfected cells; host or cells: COS-7 (transient, FuGENE 6)
T2 sequence (Q03431 with tags, fused parts or gaps limits assumed): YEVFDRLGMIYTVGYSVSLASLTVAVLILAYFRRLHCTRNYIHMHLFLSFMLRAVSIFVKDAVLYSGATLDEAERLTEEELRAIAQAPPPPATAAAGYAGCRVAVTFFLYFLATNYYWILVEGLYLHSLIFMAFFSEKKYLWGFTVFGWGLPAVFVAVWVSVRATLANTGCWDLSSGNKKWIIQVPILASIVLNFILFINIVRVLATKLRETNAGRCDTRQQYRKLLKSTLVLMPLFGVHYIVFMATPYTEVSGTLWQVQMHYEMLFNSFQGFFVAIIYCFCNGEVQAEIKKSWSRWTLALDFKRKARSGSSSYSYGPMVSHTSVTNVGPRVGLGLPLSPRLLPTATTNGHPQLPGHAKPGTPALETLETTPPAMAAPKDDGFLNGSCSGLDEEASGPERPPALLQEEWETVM
Put plainly: cAMP stimulation in COS-7 cells expressing hP1R-delNt. The following applies: for cAMP EMax(obs.) / EC50: hP1R-delNT; for cAMP EMax(obs.): basal 9.5 ± 1.3, asterisk = plateau not attained. Here is the method:
as §1, §2, §3
The possibility that the activity-enhancing effects of the Aib substitutions at positions 1 and 3 were mediated through the juxtamembrane (J) region of the receptor was investigated in COS-7 cells transiently transfected with P1R-delNt. P1R-delNt was a truncated P1R that lacked most of the amino-terminal extracellular domain.

For test [3], the target named is T1, wild-type human P1R (hP1R-WT). Kind of test: Stimulation of inositol phosphate production (PLC) in COS-7 cells expressing hP1R-WT. The following applies: for PLC EMAX(obs.) / EC50: hP1R-WT; for EC50: dash = no PLC response observed. On the procedure: as §1
Stimulation of Inositol Phosphate Production. COS-7 cells transfected as above with P1R-WT were treated with serum-free, inositol-free DMEM containing 0.1% bovine serum albumin and [^3H]myo-inositol (NEN, Boston, Mass.) (2 μCi/mL) for 16 h prior to assay. At the time of the assay, the cells were rinsed with binding buffer containing LiCl (30 mM) and treated with the same buffer with or without a PTH analog. The cells were then incubated at 37° C. for 40 min, after which the buffer was removed and replaced by 0.5 mL of ice cold 5% trichloroacetic acid solution. After 3 h on ice, the lysate was collected and extracted twice with ethyl ether. The lysate was then applied to an ion exchange column (0.5 mL resin bed) and the total inositol phosphates were eluted as described previously (Berridge, M. J., et al., Biochem. J. 212:473-482 (1983)), and counted in liquid scintillation cocktail.

Square brackets hold non-standard residues; d marks the D form. Peptide text beside a SMILES is read from it. hArg = N=C(N)NCCCC[C@H](N)C(=O)O; Aib = CC(C)(N)C(=O)O

`CC[C@H](C)[C@H](NC(=O)[C@H](CCC(=O)O)NC(=O)C(C)(C)NC(=O)[C@@H](NC(=O)C(C)(C)N)C(C)C)C(=O)N[C@@H](CCC(N)=O)C(=O)N[C@@H](CC(C)C)C(=O)N[C@@H](CCSC)C(=O)N[C@@H](Cc1c[nH]cn1)C(=O)N[C@@H](CCC(N)=O)C(=O)N[C@@H](CCCCNC(=N)N)C(N)=O` [[Aib^1,3,M]PTH(1-11), AibValAibGluIleGlnLeuMetHisGlnHar] (H-[Aib]V[Aib]EIQLMHQ[hArg]-NH2): the “cAMP EMax(obs.)” value in test [1] is 190 ± 40 pmole/well; in test [2], 220 ± 20 pmole/well.

For `CC[C@H](C)[C@H](NC(=O)[C@H](CCC(=O)O)NC(=O)[C@H](C)NC(=O)[C@@H](NC(=O)[C@H](C)N)C(C)C)C(=O)N[C@@H](CCC(N)=O)C(=O)N[C@@H](CC(C)C)C(=O)N[C@@H](CCSC)C(=O)N[C@@H](Cc1c[nH]cn1)C(=O)N[C@@H](CCC(N)=O)C(=O)N[C@@H](CCCCNC(=N)N)C(=O)N[C@@H](C)C(=O)N[C@@H](CCCCN)C(=O)N[C@@H](Cc1c[nH]c2ccccc12)C(N)=O` [[M]PTH(1-14), [Ala^3,12,Gln^10,Har^11,Trp^14]PTH(1-14)amide, reference compound] (H-AVAEIQLMHQ[hArg]AKW-NH2), the “cAMP EMax(obs.)” value in test [1] is recorded as 240 ± 50 pmole/well; in test [2] it was 220 ± 20 pmole/well. Besides, in test [3] (P1R-WT), the “increase in IP formation” value was 4 fold. The “PLC EMAX(obs.)” value in test [3] is 3.9 ± 0.5 foldxbasal.

What is called EC50 is the midpoint of the concentration-response curve. The low end stands for an effect from little substance, the high end for a need for much substance. Regarding `CC[C@H](C)[C@H](NC(=O)[C@H](CCC(=O)O)NC(=O)C(C)(C)NC(=O)[C@@H](NC(=O)C(C)(C)N)C(C)C)C(=O)N[C@@H](CCC(N)=O)C(=O)N[C@@H](CC(C)C)C(=O)N[C@@H](CCSC)C(=O)N[C@@H](Cc1c[nH]cn1)C(=O)N[C@@H](CCC(N)=O)C(=O)N[C@@H](CCCCNC(=N)N)C(=O)N[C@@H](C)C(=O)N[C@@H](CCCCN)C(=O)N[C@@H](Cc1c[nH]c2ccccc12)C(N)=O` [[Aib^1,3,M]PTH(1-14), AibValAibGluIleGlnLeuMetHisGlnHarAlaLysTrp] (H-[Aib]V[Aib]EIQLMHQ[hArg]AKW-NH2), in test [1], a half-maximal effect (EC50) was put at 1.2 ± 0.6 nM and the “cAMP EMax(obs.)” value was found to be 240 ± 40 pmole/well. In test [2] (P1R-delNt), the “cAMP EMax” value was 250±20 picomole/well and the “cAMP potency, fold more potent than [M]PTH(1-14)” value came to 55 fold. In test [2], a half-maximal effect (EC50) was put at 0.73 ± 0.16 nM and the “cAMP EMax(obs.)” value is given as 250 ± 20 pmole/well. Besides, in test [3] (P1R-WT), the “PLC potency, fold more potent than [M]PTH(1-14)” value came out at 66 fold and the “increase in IP formation” value turned out to be 4 fold. Further, in test [3], the “PLC EMAX(obs.)” value is 4.3 ± 0.6 foldxbasal and it took 71 ± 9 nM to reach a half-maximal effect (EC50).

Regarding “H-AVSEIQLMHNLGKH-NH2 [PTH(1-14), reference compound]”, the “cAMP EMax(obs.)” value in test [1] worked out at 140 ± 30 pmole/well; in test [2], 110 ± 10 pmole/well.

Consider `CCCC[C@H](NC(=O)[C@H](CCCNC(=N)N)NC(=O)[C@H](CCC(=O)O)NC(=O)[C@@H](NC(=O)[C@H](CO)NC(=O)[C@H](C)NC(=O)[C@H](CC(C)C)NC(=O)[C@H](Cc1c[nH]cn1)NC(=O)[C@H](CCCCN)NC(=O)CNC(=O)[C@H](CC(C)C)NC(=O)[C@H](CC(N)=O)NC(=O)[C@H](Cc1c[nH]cn1)NC(=O)[C@H](CCCC)NC(=O)[C@H](CC(C)C)NC(=O)[C@H](CCC(N)=O)NC(=O)[C@@H](NC(=O)[C@H](CCC(=O)O)NC(=O)[C@H](CO)NC(=O)[C@@H](NC(=O)[C@H](C)N)C(C)C)[C@@H](C)CC)C(C)C)C(=O)N[C@@H](CCC(N)=O)C(=O)N[C@@H](Cc1c[nH]c2ccccc12)C(=O)N[C@@H](CC(C)C)C(=O)N[C@@H](CCCNC(=N)N)C(=O)N[C@@H](CCCCN)C(=O)N[C@@H](CCCCN)C(=O)N[C@@H](CC(C)C)C(=O)N[C@@H](CCC(N)=O)C(=O)N[C@@H](CC(=O)O)C(=O)N[C@H](C(=O)N[C@@H](Cc1c[nH]cn1)C(=O)N[C@@H](CC(N)=O)C(=O)N[C@@H](Cc1ccc(O)cc1)C(N)=O)C(C)C` [PTH(1-34), [Nle^8,21, Tyr^34]PTH(1-34)amide, reference compound], for which the “cAMP EMax” value in test [1] (P1R-WT) was determined as 240±50 picomole/well. In test [1], the EC50 was found to be 1.4 ± 0.7 nM and the “cAMP EMax(obs.)” value stood at 240 ± 50 pmole/well. In test [2], the “cAMP potency, fold weaker on P1R-delNt than P1R-WT” value was roughly 500 fold; the response was half-maximal at 680 ± 110 nM (EC50); the “cAMP EMax(obs.)” value is on record as 220 ± 30 pmole/well. For the same compound, in test [3] (P1R-WT), the “increase in IP formation” value came out at 4 fold. In test [3], the “PLC EMAX(obs.)” value was found to be 4.2 ± 0.6 foldxbasal and the concentration for a half-maximal effect (EC50) amounted to 17 ± 2 nM.

Regarding `CC[C@H](C)[C@H](NC(=O)[C@H](CCC(=O)O)NC(=O)C(C)(C)NC(=O)[C@@H](NC(=O)C(C)(C)N)C(C)C)C(=O)N[C@@H](CCC(N)=O)C(=O)N[C@@H](CC(C)C)C(=O)N[C@@H](CCSC)C(=O)N[C@@H](Cc1c[nH]cn1)C(=O)N[C@@H](CCC(N)=O)C(N)=O` [[Aib^1,3,M]PTH(1-10), [Aib^1,3,Gln^10]PTH(1-10)] (H-[Aib]V[Aib]EIQLMHQ-NH2), the “cAMP EMax(obs.)” value came to 120 ± 10 pmole/well in test [1] and 84 ± 4 pmole/well in test [2].
